According to US20020164755A1, “Stable esterase, a process for the extraction thereof, and use thereof for cleaving acyclic monoterpenyl esters into their monoterpenols” (Council of Scientific and Industrial Research, priority 2000, published 2002):
Where a name gives a salt, the structure may show the parent alone.

What was measured:
[1] = tested on: esterase enzyme from palmarosa inflorescence; assay: Hydrolysis of geranyl acetate and other acyclic monoterpenyl esters by crude enzymic preparation from palmarosa inflorescence, GLC monitoring; type: biochemical, Cymbopogon martinii; settings: for Hydrolysis by crude enzymic preparation (in words): crude enzymic preparation from palmarosa inflorescence; for % Geranyl acetate hydrolyzed: 10 μmol geranyl acetate, 1 mg protein, 30° C.
Method: The extraction medium for the esterase enzyme consisted of 0.1 M NaPi buffer (pH 6.5) containing 50 mM sodium metabisulphite, 10 mM β-mercaptoethanol, 10 mM ascrobic acid, 0.25 M sucrose and 1 mM EDTA-Na2. Tissue (palmarosa inflorescence) was homogenized in cold extraction medium (1 g tissue/3 ml) in the presence of 50% (w/w) insoluble PVPP (polyvinyl polypyrrolidone), which prevent enzymic browning of the homogenate. The slurry was squeezed through four layers of muslin cloth and centrifuged at 15,000×g for 60 min. Purified amberlite XAD-4 resin (50% of the tissue weight) was added to the supernatant and kept for 5 minutes at 4° C., to remove the endogenous terpenes of the tissue, which can produce a significant artefact in the determination of esterase enzyme activity. The slurry thus formed was filtered through muslin cloth and the clear supernatant obtained was used to determine the acyclic monoterpenyl esters cleaving esterase activity using geranyl acetate as a model substrate. This supernatant fraction was also used for ammonium sulphate fractionation of the esterase enzyme.
Preliminary enzyme assays were done to optimize the assay conditions, and linearity of the reaction rate with time as well as enzyme concentration. The terpenoid substrates were solubilized by its dispersion in the solution of Tween-20 (10 μg/μmol of the substrate). A gas liquid chromatographic (GLC) procedure has been developed to detect the acyclic monoterpenyl esters cleaving esterase activity. […] Saturating levels (10 μmol) of the substrate geranyl acetate and 0.5 to 1.0 mg of the enzyme protein were used in each assay.
(§1) The geranyl acetate cleaving esterase activity was determined by GLC monitoring of geraniol produced by the hydrolysis of geranyl acetate. The assay system consisted of 0.05M Tris-HCl buffer (pH 8.5), 5 mM MgCl2. 6H2O, 1 mM DTE, 2 mM geranyl acetate and enzyme extract (approximately 1 mg protein), in a total volume of 0.5 ml. The reaction mixture was incubated at 30° C. in a sealed capped tube for 3-4 hours. The geraniol produced and leftover geranyl acetate was then extracted with ether and subjected to GLC. The appearance of geraniol peak indicated the presence of geranyl acetate cleaving esterase activity (FIG. 1). A blank with the boiled enzyme was also run simultaneously.
(§2) The gas liquid chromatographic (GLC) analysis, for the determination of geraniol produced and leftover geranyl acetate, was performed using a Perkin Elmer (model 3920 B) apparatus equipped with FID (flame ionization detector) stainless steel column (2 m×3 mm i.d.) packed with 10% FFAP (free fatty acid phase) on chromosorb WAW (80-100 mesh). The operating conditions were: Column temperature isothermal at 165° C., injector and detector temperature 200° C. and 250° C. respectively. Nitrogen and hydrogen flow rate were a adjusted to 30 ml/min and 28 ml/min, respectively. The geraniol and geranyl acetate peaks were identified by coinjecting authentic standards and quantified using a Varian integrator (model 4400).
Time course experiment was performed to study the linearity of the hydrolysis of geranyl acetate during the incubation period using enzymic preparation from palmarosa inflorescence. A linear catalytic rate was found up to six hours of incubation at 30° C. Almost 75% of the geranyl acetate was hydrolyzed after 24 hours of incubation (Table 1, FIG. 2).

[2] = tested on: esterase enzyme from palmarosa inflorescence (60-80% ammonium sulphate precipitated fraction); assay: Hydrolysis of mixture of acyclic monoterpenyl esters by 60-80% ammonium sulphate precipitated protein fraction; type: biochemical, Cymbopogon martinii; settings: 60-80% fraction, 1 mg protein; ester rich fraction from citronella java (geranyl acetate:geranyl formate:citronellyl acetate 60:18:21) as substrate
Method: as §1, §2
Monoterpenyl ester rich fraction from citronella java containing geranyl acetate, geranyl formate and citronellyl acetate in proportion (60:18:21) was used as substrate. […] Furthermore, crude esterase enzyme was also able to cleave these acyclic monoterpenyl esters but to a lesser extent.

Row | Compound | Hydrolysis by crude enzymic preparation (in words) [1] | % esters hydrolyzed per 3 hours [2] [%] | % Geranyl acetate hydrolyzed ([1]; incubation time 2 hour) [%] | % Geranyl acetate hydrolyzed ([1]; incubation time 4 hour) [%] | % Geranyl acetate hydrolyzed ([1]; incubation time 6 hour) [%] | % Geranyl acetate hydrolyzed ([1]; incubation time 8 hour) [%] | % Geranyl acetate hydrolyzed ([1]; incubation time 10 hour) [%] | % Geranyl acetate hydrolyzed ([1]; incubation time 12 hour) [%]
1 | CC(=O)OCCC(C)CCC=C(C)C (centres unmarked) [Citronellyl acetate, citronellyl acetate] | could also hydrolyze | 6.78 | – | – | – | – | – | –
2 | CC(C)=CCC/C(C)=C/COC=O [Geranyl formate, geranyl formate] | could also hydrolyze | 4.86 | – | – | – | – | – | –
3 | CC(=O)OC/C=C(\C)CCC=C(C)C [geranyl acetate] | – | 19.23 | 8.2 | 22.3 | 32 | 35.7 | 47.1 | 53.2
